Data published in PMC10326435, “Antiprotozoal activity of natural products from Nigerien plants used in folk medicine” (Frontiers in Pharmacology, 2023).
Where two headings read alike, the source gives them in different places.

Key:
[1] = system: P. falciparum (NF54, intraerythrocytic); test: in vitro activity on P. falciparum, serial dilution assay; type: cell-based, Plasmodium falciparum; conditions: for IC50: 72 h exposure, means of two independent assays ± deviation from the mean, read-out: IC50 P. falciparum; for Selectivity index (SI) P. falciparum: SI = IC50 cytotoxicity (L6)/IC50 in P. falciparum
Method: (§1) The in vitro activity was assessed on T. b. rhodesiense (STIB900, trypomastigotes), T. cruzi (Tulahuen C2C4, intracellular amastigotes), L. donovani (MHOM-ET-67/L82, axenically grown amastigotes), P. falciparum (NF54, intraerythrocytic), and L6 cells (ATCC, CRL-1458™, rat skeletal myoblasts) as previously described ([Bernal et al., 2020]). The activities were determined in serial dilution assays with 72 h compound exposure, respectively 96 h for intracellular T. cruzi. Results are expressed in µg/mL for extracts and in µM for pure compounds. The IC50 values were determined for the compounds only when they were <50 µM.

cytotoxicity in L6 cells = type: cell-based, rat; conditions: rat
Method: as §1

P. falciparum = conditions: cited from earlier work
[2] = system: L. donovani (MHOM-ET-67/L82, axenically grown amastigotes); test: in vitro activity on L. donovani, serial dilution assay; type: cell-based, Leishmania donovani; conditions: for IC50: axenic amastigotes, 72 h exposure, means of two independent assays ± deviation from the mean, read-out: IC50 L. donovani; for Selectivity index (SI) L. donovani: SI = IC50 cytotoxicity (L6)/IC50 in L. donovani
Method: as §1

[3] = system: T. b. rhodesiense (STIB900, trypomastigotes); test: in vitro activity on T. b. rhodesiense, serial dilution assay; type: cell-based, Trypanosoma brucei rhodesiense; conditions: for IC50: 72 h exposure, means of two independent assays ± deviation from the mean, read-out: IC50 T. b. rhodesiense; for Selectivity index (SI) T. b. rhodesiense: SI = IC50 cytotoxicity (L6)/IC50 in T. b. rhodesiense
Method: as §1

[4] = system: T. cruzi (Tulahuen C2C4, intracellular amastigotes); test: in vitro activity on T. cruzi, serial dilution assay; type: cell-based, Trypanosoma cruzi; conditions: for IC50: 96 h exposure, means of two independent assays ± deviation from the mean, read-out: IC50 T. cruzi; for Selectivity index (SI) T. cruzi: SI = IC50 cytotoxicity (L6)/IC50 in T. cruzi
Method: as §1

[5] = system: intracellular L. donovani amastigotes in mouse macrophages; test: intracellular L. donovani amastigotes in mouse macrophages; type: cell-based, Leishmania donovani; conditions: not active, read-out: IC50 against intracellular L. donovani amastigotes
Excerpt: The antiparasitic activity of myricitrin (1) and quercitrin (2) was already described in the literature ([Muzitano et al., 2006]; [Larit et al., 2021]), and therefore it was not evaluated in the present study. Compound 3 was the only compound evaluated from the extract of C. sieberiana and was compared to the activity of miltefosine due to structural similarities. […] Among the cyclopeptide alkaloids isolated from the DCM extract of Z. mauritiana (4, 5, 7–12), a methoxy group at C-13 (10–12) seems to be favorable for the antiplasmodial activity. In addition, the indole group at C-29 present in compounds 9 and 12 seems to be important for the activity against T. b. rhodesiense. […] This is the first report on the antileishmanial and antitrypanosomal activities of these compounds. […] This is in agreement with our study. Among the triterpene derivatives isolated from the DCM root bark extract of Z. mauritiana (6, 13–19), betulinic acid (19), an already well-studied compound, was not tested in this work. […] The triterpenoids tested in the present work (Table 3) were mainly active against L. donovani and presented a good selectivity index. The substitution with an epoxy group in compound 13 compared to compound 6 enhanced the activity toward L. donovani and P. falciparum but not against T. cruzi. […]

[6] = system: L6 cells (ATCC, CRL-1458, rat skeletal myoblasts); test: cytotoxicity in L6 cells; type: cell-based; conditions: rat, 72 h
Method: as §1

Leishmania spp. = system: Leishmania spp.; set-up: method as in Rocha et al., 2022; conditions: no significant activity; ref Rocha et al., 2022; read-out: IC50 against Leishmania spp.; cited from earlier work
T. b. rhodesiense = conditions: previously reported; ref Cretton et al., 2015; read-out: IC50 against T. b. rhodesiense; cited from earlier work
T. cruzi = conditions: read-out: IC50 against T. cruzi, cited from earlier work
L. amazonensis = system: L. amazonensis; set-up: method as in Costa et al., 2018; conditions: ref Costa et al., 2018; read-out: IC50 against L. amazonensis; cited from earlier work
[7] = Plasmodium falciparum, NF54, 72 h
[8] = already reported, ref Suksamrarn et al., 2006, Panseeta et al., 2011, Tuenter et al., 2017, read-out: antiplasmodial activity IC50
[9] = Trypanosoma cruzi, TULAHUEN, 96 h
[10] = L6 cells (rat skeletal myoblasts, ATCC CRL-1458), rat skeletal myoblast (L6 cells), 72 h exposure, means of two independent assays ± deviation from the mean, read-out: IC50 Cytotoxicity

SMILES | IC50 [1, 7] [µM] | Selectivity index (SI) P. falciparum [1] | IC50 at 72 h (cytotoxicity in L6 cells; IC50 Cytotoxicity) [µM] | IC50 ([2]; Leishmania donovani, 72 h) [µM] | Selectivity index (SI) L. donovani [2] | IC50 ([3]; Trypanosoma brucei, 72 h) [µM] | IC50 [4, 9] [µM] | Selectivity index (SI) T. b. rhodesiense [3] | Selectivity index (SI) T. cruzi [4] | further results
CN[C@H](C)C(=O)N[C@H](C(=O)N1CC[C@@H]2Oc3ccc(OC)c(c3)/C=C\NC(=O)[C@H](Cc3ccccc3)NC(=O)[C@H]21)C(C)C [Compound 11, N-demethylamphibine H] | 14.7 ± 4.2 | > 5.4 | > 50 | 44.8 ± 3.4 | > 1.5 | > 50 | > 50 | – | – | IC50 (P. falciparum; [8]): 3.6 µM
CCC(C)[C@@H]1NC(=O)[C@@H]2[C@H](CCN2C(=O)[C@H](Cc2c[nH]c3ccccc23)NC(=O)[C@H](CC(C)C)NC)Oc2ccc(OC)c(c2)/C=C\NC1=O (some centres unmarked) [Compound 12, mauritine M] | 2.6 ± 0.2 | 12.2 | 31.8 ± 7.6 | > 50 | – | 6.4 ± 2 | 15.7 ± 1.1 | 5.0 | 2.0 | IC50 (P. falciparum; [8]): 3.7 µM
C=C(C)C1CCC2(C(=O)O)CCC3(C)C(CCC4C5(C)C(C(=O)O)C(OC(=O)c6ccccc6)C(C)(C)C5CCC43C)C12 [Compound 15, (1R, 3S)-3-O-benzoyl ceanothic acid] | 10.1 ± 0.6 | 1.6 | 16.4 ± 5.8 | – | 32.8 | – | 43.8 ± 8.4 | 1.4 | 0.4 | IC50 [2]: 0.5 ± 0.2 µM; IC50 [3]: 11.7 ± 1 µM; IC50 ([5]; Leishmania donovani, Macrophage): > 50 µM
C=C(C)C1CCC2(C(=O)O)CCC3(C)C(CCC4C5(C)C(C(=O)O)C(OC(=O)c6ccccc6)C(C)(C)C5CCC43C)C12 [Compound 16, (1S, 3S)-3-O-benzoyl ceanothic acid] | – | 2.1 | – | – | 17.9 | – | – | 1.1 | – | IC50 [1]: 15.3 ± 1.5 µM; IC50 [6]: 32.3 ± 5.1 µM; IC50 [2]: 1.8 ± 0.7 µM; IC50 [3]: 30.6 ± 2.8 µM; IC50 [4]: > 50 µM; IC50 [5]: > 50 µM
C=C(C)[C@@H]1CC[C@]2(C(=O)O)CC[C@]3(C)[C@H](CC[C@@H]4[C@@]5(C)CC[C@H](O)C(C)(C)[C@@H]5CC[C@]43C)[C@@H]12 [Compound 19, betulinic acid] | – | – | – | – | – | – | – | – | – | IC50 (Leishmania spp.): > 25 µM; IC50 (P. falciparum; previously reported, ref Cretton et al., 2015, read-out: IC50 against P. falciparum): 19 µM; IC50 (T. b. rhodesiense): 4.2 µM; IC50 (T. cruzi; no significant activity, ref Rocha et al., 2022): > 25 µM
CC(C)=CCC1=C(O)C(=O)c2c(O)ccc(O)c2C1=O [Compound 20] | 45 ± 4.6 | 0.3 | – | 1.9 ± 0.4 | 7.4 | 6.9 ± 1.3 | 27.4 ± 1.3 | 2.0 | 0.5 | IC50 at 72 h (cytotoxicity in L6 cells; [10]): 14 ± 0.4 µM; IC50 (P. falciparum; previously evaluated, ref Kopa et al., 2014, read-out: antiplasmodial activity IC50): 3 µM
CC1(C)C=CC2=C(O1)C(=O)c1c(O)ccc(O[C@@H]3O[C@H](CO)[C@@H](O)[C@H](O)[C@H]3O)c1C2=O [Compound 29] | > 50 | – | – | 11.4 ± 2.3 | 3.5 | 12.5 ± 1.6 | > 50 | 3.2 | – | IC50 at 72 h (cytotoxicity in L6 cells; [10]): 40.3 ± 0.7 µM; IC50 (L. amazonensis): 12.6 µM; IC50 (T. cruzi; ref Costa et al., 2018): 7.6 µM
